A short description of one assay: Evaluated for its ability to block the adherence of JY-8 cells to immobilized ICAM-1.
Compound `CC(=O)N1CCN(C(=O)/C=C/c2ccc(Sc3ccc(Cl)cc3Cl)c(Cl)c2)CC1` [1-(4-Acetyl-piperazin-1-yl)-3-[3-chloro-4-(2,4-dichloro-phenylsulfanyl)-phenyl]-propenone] had an IC50 of 240 nM.
Compound `CC(=O)N1CCN(C(=O)/C=C/c2ccc(Sc3ccc(Cl)cc3Cl)c([N+](=O)[O-])c2)CC1` [1-(4-Acetyl-piperazin-1-yl)-3-[4-(2,4-dichloro-phenylsulfanyl)-3-nitro-phenyl]-propenone] showed an IC50 of 63 nM.
`CCc1ccccc1Sc1ccc(/C=C/C(=O)N2CCN(C(C)=O)CC2)cc1[N+](=O)[O-]` [1-(4-Acetyl-piperazin-1-yl)-3-[4-(2-ethyl-phenylsulfanyl)-3-nitro-phenyl]-propenone] displayed an IC50 of 100 nM.
Regarding `O=C(/C=C/c1ccccc1Sc1ccc(Cl)cc1Cl)N1CCOCC1` [3-[2-(2,4-Dichloro-phenylsulfanyl)-phenyl]-1-morpholin-4-yl-propenone], the IC50 stood at 5300 nM.
Still for that read-out and setting: with `O=C(/C=C/c1ccccc1Sc1ccc(Cl)cc1Cl)NCCCCCCO` [3-[2-(2,4-Dichloro-phenylsulfanyl)-phenyl]-N-(6-hydroxy-hexyl)-acrylamide] the figure was 2100 nM.
Take `O=C(/C=C/c1ccc(Sc2ccc(Cl)cc2Cl)c([N+](=O)[O-])c1)NCCCN1CCCC1=O` [3-[4-(2,4-Dichloro-phenylsulfanyl)-3-nitro-phenyl]-N-[3-(2-oxo-pyrrolidin-1-yl)-propyl]-acrylamide]: the midpoint of inhibition, the IC50, lay at 140 nM.
The same measure, in the same setting: the value for `O=C(/C=C/c1ccc(Sc2ccccc2/C=C/C(=O)N2CCOCC2)c(Cl)c1)N1CCOCC1` [3-{3-Chloro-4-[2-(3-morpholin-4-yl-3-oxo-propenyl)-phenylsulfanyl]-phenyl}-1-morpholin-4-yl-propenone] was 190 nM.
`O=C(/C=C/c1ccc(Sc2ccccc2CN2CCN(Cc3ccc4c(c3)OCO4)CC2)c(Cl)c1)N1CCOCC1` [3-{4-[2-(4-Benzo[1,3]dioxol-5-ylmethyl-piperazin-1-ylmethyl)-phenylsulfanyl]-3-chloro-phenyl}-1-morpholin-4-yl-propenone] came in with an IC50 of 360 nM.

Test in a further assay: as above
The source holds these as a separate data set.
`O=C(/C=C/c1ccc(Sc2ccc(Cl)cc2Cl)c(Cl)c1)NCCCN1CCCC1=O` [3-[3-Chloro-4-(2,4-dichloro-phenylsulfanyl)-phenyl]-N-[3-(2-oxo-pyrrolidin-1-yl)-propyl]-acrylamide] registered an IC50 of 700 nM.

What is called IC50 is the midpoint of a concentration-inhibition curve.

Source of the values: BindingDB's records for doi:10.1021/jm0002782 (Abbott Laboratories, 2000).
